Source: patent publication EP0173480A2, “The antiviral use of phyllanthostatins” (priority 1984, dated 1986)
Values after ≈ are worked out from the molar mass of the structure shown. Like-named read-outs stand apart in the source and are kept apart here.

Legend:
[1] = Drug toxicity in non-infected female mice treated intravaginally; format: in vivo; conditions: compared with saline
Procedure: Where indicated, non-infected mice (5 per group) were treated identically (3 times daily x 5) in order to determine drug toxicity. The groups of mice were weighed at the indicated times.
Non-infected female mice were treated intravaginally with the same drugs, at the same concentrations and with a schedule (3 x daily x 5 days). Animal weights were determined at the time of initiation of treatment (day 0), and again on day 4 (after 12 treatments were given), and again after treatments had been concluded on days 7, 11 and 15. The weights of the groups of mice treated with placebo or the high drug concentrations are shown on Table 3, and the differences in weights in Figure 4. […] Weight gains in mice treated with phyllanthoside (1 mg/ml) were slightly less than that of the above compounds, but by day 15, the mice had the same gain as those treated with phyllanthostatin I, saline or zinc acetate.

[2] = test system: herpes simplex virus type 2 (HSV-2, MS); assay: Inhibition of virus replication, virus yield by plaque method; format: cell-based; conditions: for HSV-2 virus yield: Vero cells
[3] = test system: Vero cells; assay: Cytotoxicity of drugs, absorbance at 260 nm of lysed cell monolayers
[4] = as above; conditions: monkey, vero cells, drug concentration which reduces the OD260 of lysed cells by 50%
[5] = test system: HSV-2; assay: Cell culture antiviral activity, agar-well zones of cytotoxicity / plaque inhibition; conditions: 50 pg of test compound (so in the source)
[6] = test system: coxsackie B3 virus (Nancy Strain); assay: Inhibition of virus replication, virus yield in Vero cells; format: cell-based
[7] = test system: Herpes Simplex virus type 2 (HSV-2, strain 35D); assay: Genital HSV-2 infection of female mice, intravaginal treatment, survival; format: in vivo; conditions: for mice survived (of 14): study of Table 3; for %S (percent survivors) / MDD (mean day of death): N 14; for deaths: zinc acetate (0.1M)
[8] = test system: HSV-1; assay: Cell culture antiviral activity, agar-well zones of cytotoxicity / plaque inhibition; conditions: 50 pg of test compound (so in the source)
[9] = test system: E.R.; conditions: 50 pg of test compound (so in the source)
[10] = test system: VSV (vesicular stomatitis virus); format: cell-based; conditions: Vero cells; higher drug concentrations (5 and 50 µg/ml) compared with 0.5
[11] = test system: Vacc.; conditions: 50 pg of test compound (so in the source)
[12] = test system: Coe; assay: Cell culture antiviral activity, agar-well zones of cytotoxicity / plaque inhibition; conditions: 50 pg of test compound (so in the source)
[13] = test system: PR-8; conditions: 50 pg of test compound (so in the source)
[14] = test system: herpes simplex virus type 1 (HSV-1, McIntyre); assay: Inhibition of virus replication, virus yield by plaque method; format: cell-based
[15] = test system: HA-1; assay: Cell culture antiviral activity, agar-well zones of cytotoxicity / plaque inhibition; conditions: 50 pg of test compound (so in the source)
[16] = test system: Herpes Simplex virus type 2 (HSV-2, strain 35D); assay: Genital HSV-2 infection of female mice, virus titers in vaginal secretions; format: in vivo; conditions: for Mean virus titer in swabs of mice which shed virus / Nv/Nt, swabs with virus/total swabs: 8.0 x 10^4 PFU;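 for Mean virus titer in swabs of mice which shed virus: titer expressed as log PFU per ml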
[17] = test system: coxsackie A21; format: cell-based; conditions: ML cells
[18] = higher drug concentrations (5 and 50 µg/ml) compared with 0.5
[19] = therapeutic index with ID50 Vero 72 hrs.
[20] = therapeutic index with ID50 Vero 91 hrs.
[21] = 8.0 x 10^3 PFU/0.1 ml, mg/ml cell empty (1 mg/ml in upper section)
[22] = 8.0 x 10^4 PFU/0.1 ml, 1 mg/ml intravaginally
[23] = day 1 after HSV-2 inoc., 0.5 mg/ml
[24] = day 1 after HSV-2 inoc., 1 mg/ml
[25] = day 2 after HSV-2 inoc., 0.5 mg/ml
[26] = day 2 after HSV-2 inoc., 1 mg/ml
[27] = day 3 after HSV-2 inoc., 0.5 mg/ml
[28] = day 3 after HSV-2 inoc., 1 mg/ml
[29] = day 4 after HSV-2 inoc., 0.5 mg/ml
[30] = day 4 after HSV-2 inoc., 1 mg/ml
[31] = day 7 after HSV-2 inoc., 0.5 mg/ml
[32] = day 7 after HSV-2 inoc., 1 mg/ml
[33] = 8.0 x 10^3 PFU/0.1 ml, mg/ml cell empty (44 mg/ml in upper section)
[34] = 8.0 x 10^4 PFU/0.1 ml, 44 mg/ml intravaginally

Compound: CC(=O)O[C@@H]1[C@@H](O)[C@H](O[C@H]2[C@H](OC(=O)[C@H]3CC[C@@H]4[C@H](C3)O[C@@]3(C[C@H](OC(=O)/C=C/c5ccccc5)[C@H](C)CO3)[C@]43CO3)O[C@H](C)[C@@H](O)[C@@H]2OC(C)=O)O[C@H](C)[C@H]1O [Phyllanthoside]
- weight gains ([1]; 1 mg/ml intravaginally 3 x daily x 5 days, zinc acetate groups, same gain by day 15): slightly less
- ED90 MS ([2]; HSV-2 in Vero cells, drug concentration reducing virus titers by 90%, 1440 min): 1.4958 µg per ml
- EC90 ([2]; Human alphaherpesvirus 2, Vero, 24 h, read-out: ED90 MS): 1.5 µg/mL (≈ 1.86 µM)
- HSV-2 virus yield ([2]; 0.5 µg/ml): most susceptible virus to inhibition
- HSV-2 virus yield [2, 18]: further reductions in all virus yields
- T - ID50/ED90, MS [2, 19]: 0.7989
- T - ID50/ED90, MS [2, 20]: 2.3854
- OD260 of lysed cells ([3]; Vero cells, 0.5 µg per ml, greatly increased OD260 after 72 hours): decreased the OD260 during 72 hours
- cell growth (OD260 of lysed cells) ([3]; Vero cells, 1 µg per ml, OD260 increased dramatically at 96 hours): cell growth was suppressed to a greater extent during the first 72 hours
- ID50 Vero 91 hrs. ([3]; drug concentration which reduces the OD260 of lysed cells by 50%, table head 91 hrs., b38 96 hours, 5460 min): 3.568 ug per ml
- CC50 at 72 h ([4]; ID50 Vero 72 hrs., 72 hours): 1200 µg/mL (≈ 1480 µM)
- CC50 at 91 h ([4]; ID50 Vero 91 hrs., table head 91 hrs., b38 96 hours): 3.57 µg/mL (≈ 4.44 µM)
- zone of cytotoxicity ([5]; first figure of the cell): 3
- zone of antiviral activity (viral plaque inhibition) ([5]; second figure of the cell): 4
- coxsackie B3 virus yield ([6]; 5 µg per ml): inhibitory for both viruses
- coxsackie B3 virus yield ([6]; below 5 µg per ml (i.e., 0.5 or 1)): unaffected
- mice survived (of 14) ([7]; 8.0 x 10^3 PFU in 0.1 ml): 13
- %S (percent survivors) [7, 21]: 93%
- MDD (mean day of death) [7, 21]: 14.0 days
- mice survived (of 14) ([7]; 8.0 x 10^4 PFU in 0.1 ml): 9
- %S (percent survivors) [7, 22]: 64%
- MDD (mean day of death) [7, 22]: 9.0 days
- protection of mice from lethal genital HSV-2 infection, summary in words ([7]; intravaginally from one hour after inoculation, 3 times daily): most effective of the compounds
- mice survived ([7]; second study, 8.0 x 10^4 PFU in 0.1 ml, 0.5 mg/ml): 1
- mice protected from death (of 10) ([7]; second study, 8.0 x 10^4 PFU in 0.1 ml, 1 mg/ml): 7
- zone of cytotoxicity ([8]; first figure of the cell): 4/4
- zone of antiviral activity (viral plaque inhibition) ([8]; second figure of the cell): 4/4
- zone of cytotoxicity ([9]; first figure of the cell): 2 (2 - 20-30 mm)
- zone of antiviral activity (viral plaque inhibition) ([9]; second figure of the cell): 4
- VSV virus yield [10]: further reductions in all virus yields
- zone of cytotoxicity ([11]; first figure of the cell): 4/4
- zone of antiviral activity (viral plaque inhibition) ([11]; second figure of the cell): 4/4
- zone of cytotoxicity ([12]; first figure of the cell): 3
- zone of antiviral activity (viral plaque inhibition) ([12]; second figure of the cell): 0
- zone of cytotoxicity ([13]; first figure of the cell): 3/3
- zone of antiviral activity (viral plaque inhibition) ([13]; second figure of the cell): 3/3
- HSV-1 virus yield ([14]; Vero cells, higher drug concentrations (5 and 50 µg/ml) compared with 0.5): further reductions in all virus yields
- T - ID50/ED90, McIntyre [14, 19]: 0.6402
- T - ID50/ED90, McIntyre [14, 20]: 1.9115
- zone of cytotoxicity ([15]; first figure of the cell): 4
- zone of antiviral activity (viral plaque inhibition) ([15]; second figure of the cell): 0
- mean titer less than placebo treated groups ([16]; 0.5 mg/ml, after the first 3 days): about 0.6 logs
- mean titer less than placebo treated groups ([16]; 0.5 mg/ml, first 3 days): about 1 log
- mean titer less than saline or DMSO-saline treated groups ([16]; 1 mg/ml, day 4): about 0.6 logs
- mean titer less than saline or DMSO-saline treated groups ([16]; 1 mg/ml, days 1, 2 and 3): about one
- Mean virus titer in swabs of mice which shed virus [16, 23]: 2.46 log PFU/ml
- Nv/Nt, swabs with virus/total swabs [16, 23]: 5/10
- Nv/Nt, swabs with virus/total swabs ([16]; day 1 after HSV-2 inoc., 0.5 mg/ml, listed as phyllanthoside): 5
- Mean virus titer in swabs of mice which shed virus [16, 24]: 2.83 log PFU/ml
- Nv/Nt, swabs with virus/total swabs [16, 24]: 2/10
- Nv/Nt, swabs with virus/total swabs ([16]; day 1 after HSV-2 inoc., 1 mg/ml, listed as phyllanthoside): 2
- Mean virus titer in swabs of mice which shed virus [16, 25]: 3.45 log PFU/ml
- Nv/Nt, swabs with virus/total swabs [16, 25]: 7/10
- Mean virus titer in swabs of mice which shed virus [16, 26]: 2.98 log PFU/ml
- Nv/Nt, swabs with virus/total swabs [16, 26]: 3/10
- Nv/Nt, swabs with virus/total swabs ([16]; day 2 after HSV-2 inoc., 1 mg/ml, listed as phyllanthoside): 3
- Mean virus titer in swabs of mice which shed virus [16, 27]: 3.41 log PFU/ml
- Nv/Nt, swabs with virus/total swabs [16, 27]: 8/10
- Mean virus titer in swabs of mice which shed virus [16, 28]: 3.11 log PFU/ml
- Nv/Nt, swabs with virus/total swabs [16, 28]: 5/10
- Nv/Nt, swabs with virus/total swabs ([16]; day 3 after HSV-2 inoc., 1 mg/ml, listed as phyllanthoside): 5
- Mean virus titer in swabs of mice which shed virus [16, 29]: 3.73 log PFU/ml
- Nv/Nt, swabs with virus/total swabs [16, 29]: 8/10
- Mean virus titer in swabs of mice which shed virus [16, 30]: 3.72 log PFU/ml
- Nv/Nt, swabs with virus/total swabs [16, 30]: 4/10
- Nv/Nt, swabs with virus/total swabs ([16]; day 4 after HSV-2 inoc., 1 mg/ml, listed as phyllanthoside): 4
- Mean virus titer in swabs of mice which shed virus [16, 31]: 3.98 log PFU/ml
- Nv/Nt, swabs with virus/total swabs [16, 31]: 2/4
- Mean virus titer in swabs of mice which shed virus [16, 32]: 2.94 log PFU/ml
- Nv/Nt, swabs with virus/total swabs [16, 32]: 3/8
- coxsackie A21 virus yield ([17]; 5 µg/ml (below 5 µg per ml)): inhibitory for both viruses
- coxsackie A21 virus yield ([17]; below 5 µg per ml (i.e., 0.5 or 1), study of b36): reduced titers of coxsackie A21
- coxsackie A21 virus yield [17, 18]: further reductions in all virus yields

Compound: zinc acetate [Zn(OAc)2, reference compound]
- weight changes ([1]; zinc acetate intravaginally 3 x daily x 5 days): essentially the same
- %S (percent survivors) [7, 33]: 79%
- MDD (mean day of death) [7, 33]: 3.0 days
- deaths ([7]; 8.0 x 10^3 PFU, two of the three deaths on day 4, probably not virus related): 21.4%
- %S (percent survivors) [7, 34]: 71%
- MDD (mean day of death) [7, 34]: 8.3 days
- deaths ([7]; 8.0 x 10^4 PFU): 50%
- mice protected from lethal infection ([7]; second study, 8.0 x 10^4 PFU in 0.1 ml, positive control, concentration not given, 10 mice): 80%
- Mean virus titer in swabs of mice which shed virus ([16]; day 1 after HSV-2 inoc., Zn(OAc)2 concentration not given, value in brackets): (2.60) log PFU/ml
- Nv/Nt, swabs with virus/total swabs ([16]; day 1 after HSV-2 inoc., Zn(OAc)2 concentration not printed): 1/10
- Nv/Nt, swabs with virus/total swabs ([16]; day 1 after HSV-2 inoc., Zn(OAc)2 concentration not printed, listed as zinc acetate): One of 10
- Nv/Nt, swabs with virus/total swabs ([16]; day 2 after HSV-2 inoc., Zn(OAc)2 concentration not given): 1/10
- Mean virus titer in swabs of mice which shed virus ([16]; day 2 after HSV-2 inoc., Zn(OAc)2 concentration not given, value in brackets): (3.54) log PFU/ml
- Nv/Nt, swabs with virus/total swabs ([16]; day 3 after HSV-2 inoc., Zn(OAc)2 concentration not given): 1/10
- Mean virus titer in swabs of mice which shed virus ([16]; day 3 after HSV-2 inoc., Zn(OAc)2 concentration not given, value in brackets): (3.42) log PFU/ml
- Nv/Nt, swabs with virus/total swabs ([16]; day 4 after HSV-2 inoc., Zn(OAc)2 concentration not given): 1/9
- Mean virus titer in swabs of mice which shed virus ([16]; day 4 after HSV-2 inoc., Zn(OAc)2 concentration not given, value in brackets): (4.54) log PFU/ml
- Nv/Nt, swabs with virus/total swabs ([16]; day 7 after HSV-2 inoc., Zn(OAc)2 concentration not given): 0/8
